Measured values published in US20240300932A1, “N-PHENYLIMINE DERIVATIVE AND PREPARATION METHOD AND USE THEREOF” (Guizhou University, priority 2023, published 2024).

How the values were obtained:
Assay in all cases: Post-emergence herbicidal activity test (stem and leaf spray, pot culture)
Format in all cases: in vivo
Conditions in all cases: 3 weeks after spraying
Portulaca oleracea = tested on: Portulaca oleracea
Outline: (§1)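 Pot-grown weeds in loam (pH 7, 1.63% organic matter) were spray-treated on stems and leaves at the 2- to 3-leaf stage with compound in acetone/Tween 80 plus 1.5 liters/ha methyl oleate at 10, 5 or 2.5 g/mu. Fresh-weight growth control was scored 3 weeks later as grades 0–5.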

Amaranthus retroflexus = tested on: Amaranthus retroflexus
Outline: as §1

Setaria viridis = tested on: Setaria viridis
Outline: as §1

Abutilon theophrasti = tested on: Abutilon theophrasti
Outline: as §1

Echinochloa crusgalli = tested on: Echinochloa crusgalli
Outline: as §1

Trifoliumre pensL. = tested on: Trifoliumre pensL.
Outline: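 Pot-grown weeds in loam (pH 7), greenhouse at 20–30 °C, sprayed once post-emergence at the 2–3-leaf stage. Compound in acetone with Tween 80 plus methyl oleate oil (1.5 L/ha), applied at 10, 5 and 2.5 g/mu by spray tower. Effect scored 3 weeks after spraying, averaged over three repeats.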

Structure (SMILES): O=C1C2=C(CCCC2)C(=O)N1c1cc(OCc2nnc(-c3ccccc3F)o2)c(Cl)cc1F [Compound B4]
- Post-emergence herbicidal activity, P. oleracea (grade) (Portulaca oleracea; dosage 2.5 g/mu): 4 (Grade 4: the growth control rate is greater than or equal to 60% and less than 85%)
- Post-emergence herbicidal activity, P. oleracea (grade) (Portulaca oleracea; dosage 5 g/mu): 5 (Grade 5: the growth control rate is greater than or equal to 85%)
- Post-emergence herbicidal activity, P. oleracea (grade) (Portulaca oleracea; dosage 10 g/mu): 5 (Grade 5: the growth control rate is greater than or equal to 85%)
- Post-emergence herbicidal activity, A. retroflexus (grade) (Amaranthus retroflexus; dosage 2.5 g/mu): 5 (Grade 5: the growth control rate is greater than or equal to 85%)
- Post-emergence herbicidal activity, A. retroflexus (grade) (Amaranthus retroflexus; dosage 5 g/mu): 5 (Grade 5: the growth control rate is greater than or equal to 85%)
- Post-emergence herbicidal activity, A. retroflexus (grade) (Amaranthus retroflexus; dosage 10 g/mu): 5 (Grade 5: the growth control rate is greater than or equal to 85%)
- Post-emergence herbicidal activity, S. viridis (grade) (Setaria viridis; dosage 2.5 g/mu): 2 (Grade 2: the growth control rate is greater than or equal to 20% and less than 40%)
- Post-emergence herbicidal activity, S. viridis (grade) (Setaria viridis; dosage 5 g/mu): 3 (Grade 3: the growth control rate is greater than or equal to 40% and less than 60%)
- Post-emergence herbicidal activity, S. viridis (grade) (Setaria viridis; dosage 10 g/mu): 4 (Grade 4: the growth control rate is greater than or equal to 60% and less than 85%)
- Post-emergence herbicidal activity, A. theophrasti (grade) (Abutilon theophrasti; dosage 2.5 g/mu): 4 (Grade 4: the growth control rate is greater than or equal to 60% and less than 85%)
- Post-emergence herbicidal activity, A. theophrasti (grade) (Abutilon theophrasti; dosage 5 g/mu): 5 (Grade 5: the growth control rate is greater than or equal to 85%)
- Post-emergence herbicidal activity, A. theophrasti (grade) (Abutilon theophrasti; dosage 10 g/mu): 5 (Grade 5: the growth control rate is greater than or equal to 85%)
- Post-emergence herbicidal activity, E. crusgalli (grade) (Echinochloa crusgalli; dosage 2.5 g/mu): 1 (Grade 1: the growth control rate is greater than or equal to 5% and less than 20%)
- Post-emergence herbicidal activity, E. crusgalli (grade) (Echinochloa crusgalli; dosage 5 g/mu): 2 (Grade 2: the growth control rate is greater than or equal to 20% and less than 40%)
- Post-emergence herbicidal activity, E. crusgalli (grade) (Echinochloa crusgalli; dosage 10 g/mu): 3 (Grade 3: the growth control rate is greater than or equal to 40% and less than 60%)
- Post-emergence herbicidal activity, Trifoliumre pensL. (grade) (Trifoliumre pensL.; dosage 2.5 g/mu): 5 (Grade 5: the growth control rate is greater than or equal to 85%)
- Post-emergence herbicidal activity, Trifoliumre pensL. (grade) (Trifoliumre pensL.; dosage 5 g/mu): 5 (Grade 5: the growth control rate is greater than or equal to 85%)
- Post-emergence herbicidal activity, Trifoliumre pensL. (grade) (Trifoliumre pensL.; dosage 10 g/mu): 5 (Grade 5: the growth control rate is greater than or equal to 85%)

Structure (SMILES): O=C1C2=C(CCCC2)C(=O)N1c1cc(OCc2nc(-c3ccc(F)c(F)c3)no2)c(Cl)cc1F [Compound A14]
- Post-emergence herbicidal activity, P. oleracea (grade) (Portulaca oleracea; dosage 2.5 g/mu): 4 (Grade 4: the growth control rate is greater than or equal to 60% and less than 85%)
- Post-emergence herbicidal activity, P. oleracea (grade) (Portulaca oleracea; dosage 5 g/mu): 5 (Grade 5: the growth control rate is greater than or equal to 85%)
- Post-emergence herbicidal activity, P. oleracea (grade) (Portulaca oleracea; dosage 10 g/mu): 5 (Grade 5: the growth control rate is greater than or equal to 85%)
- Post-emergence herbicidal activity, A. retroflexus (grade) (Amaranthus retroflexus; dosage 2.5 g/mu): 5 (Grade 5: the growth control rate is greater than or equal to 85%)
- Post-emergence herbicidal activity, A. retroflexus (grade) (Amaranthus retroflexus; dosage 5 g/mu): 5 (Grade 5: the growth control rate is greater than or equal to 85%)
- Post-emergence herbicidal activity, A. retroflexus (grade) (Amaranthus retroflexus; dosage 10 g/mu): 5 (Grade 5: the growth control rate is greater than or equal to 85%)
- Post-emergence herbicidal activity, S. viridis (grade) (Setaria viridis; dosage 2.5 g/mu): 2 (Grade 2: the growth control rate is greater than or equal to 20% and less than 40%)
- Post-emergence herbicidal activity, S. viridis (grade) (Setaria viridis; dosage 5 g/mu): 3 (Grade 3: the growth control rate is greater than or equal to 40% and less than 60%)
- Post-emergence herbicidal activity, S. viridis (grade) (Setaria viridis; dosage 10 g/mu): 4 (Grade 4: the growth control rate is greater than or equal to 60% and less than 85%)
- Post-emergence herbicidal activity, A. theophrasti (grade) (Abutilon theophrasti; dosage 2.5 g/mu): 5 (Grade 5: the growth control rate is greater than or equal to 85%)
- Post-emergence herbicidal activity, A. theophrasti (grade) (Abutilon theophrasti; dosage 5 g/mu): 5 (Grade 5: the growth control rate is greater than or equal to 85%)
- Post-emergence herbicidal activity, A. theophrasti (grade) (Abutilon theophrasti; dosage 10 g/mu): 5 (Grade 5: the growth control rate is greater than or equal to 85%)
- Post-emergence herbicidal activity, E. crusgalli (grade) (Echinochloa crusgalli; dosage 2.5 g/mu): 1 (Grade 1: the growth control rate is greater than or equal to 5% and less than 20%)
- Post-emergence herbicidal activity, E. crusgalli (grade) (Echinochloa crusgalli; dosage 5 g/mu): 2 (Grade 2: the growth control rate is greater than or equal to 20% and less than 40%)
- Post-emergence herbicidal activity, E. crusgalli (grade) (Echinochloa crusgalli; dosage 10 g/mu): 3 (Grade 3: the growth control rate is greater than or equal to 40% and less than 60%)
- Post-emergence herbicidal activity, Trifoliumre pensL. (grade) (Trifoliumre pensL.; dosage 2.5 g/mu): 4 (Grade 4: the growth control rate is greater than or equal to 60% and less than 85%)
- Post-emergence herbicidal activity, Trifoliumre pensL. (grade) (Trifoliumre pensL.; dosage 5 g/mu): 5 (Grade 5: the growth control rate is greater than or equal to 85%)
- Post-emergence herbicidal activity, Trifoliumre pensL. (grade) (Trifoliumre pensL.; dosage 10 g/mu): 5 (Grade 5: the growth control rate is greater than or equal to 85%)

Structure (SMILES): O=C1C2=C(CCCC2)C(=O)N1c1cc(OCc2nc(-c3cnc(C(F)(F)F)cc3Cl)no2)c(Cl)cc1F [Compound A10]
- Post-emergence herbicidal activity, P. oleracea (grade) (Portulaca oleracea; dosage 2.5 g/mu): 4 (Grade 4: the growth control rate is greater than or equal to 60% and less than 85%)
- Post-emergence herbicidal activity, P. oleracea (grade) (Portulaca oleracea; dosage 5 g/mu): 5 (Grade 5: the growth control rate is greater than or equal to 85%)
- Post-emergence herbicidal activity, P. oleracea (grade) (Portulaca oleracea; dosage 10 g/mu): 5 (Grade 5: the growth control rate is greater than or equal to 85%)
- Post-emergence herbicidal activity, A. retroflexus (grade) (Amaranthus retroflexus; dosage 2.5 g/mu): 5 (Grade 5: the growth control rate is greater than or equal to 85%)
- Post-emergence herbicidal activity, A. retroflexus (grade) (Amaranthus retroflexus; dosage 5 g/mu): 5 (Grade 5: the growth control rate is greater than or equal to 85%)
- Post-emergence herbicidal activity, A. retroflexus (grade) (Amaranthus retroflexus; dosage 10 g/mu): 5 (Grade 5: the growth control rate is greater than or equal to 85%)
- Post-emergence herbicidal activity, S. viridis (grade) (Setaria viridis; dosage 2.5 g/mu): 2 (Grade 2: the growth control rate is greater than or equal to 20% and less than 40%)
- Post-emergence herbicidal activity, S. viridis (grade) (Setaria viridis; dosage 5 g/mu): 3 (Grade 3: the growth control rate is greater than or equal to 40% and less than 60%)
- Post-emergence herbicidal activity, S. viridis (grade) (Setaria viridis; dosage 10 g/mu): 4 (Grade 4: the growth control rate is greater than or equal to 60% and less than 85%)
- Post-emergence herbicidal activity, A. theophrasti (grade) (Abutilon theophrasti; dosage 2.5 g/mu): 5 (Grade 5: the growth control rate is greater than or equal to 85%)
- Post-emergence herbicidal activity, A. theophrasti (grade) (Abutilon theophrasti; dosage 5 g/mu): 5 (Grade 5: the growth control rate is greater than or equal to 85%)
- Post-emergence herbicidal activity, A. theophrasti (grade) (Abutilon theophrasti; dosage 10 g/mu): 5 (Grade 5: the growth control rate is greater than or equal to 85%)
- Post-emergence herbicidal activity, E. crusgalli (grade) (Echinochloa crusgalli; dosage 2.5 g/mu): 1 (Grade 1: the growth control rate is greater than or equal to 5% and less than 20%)
- Post-emergence herbicidal activity, E. crusgalli (grade) (Echinochloa crusgalli; dosage 5 g/mu): 2 (Grade 2: the growth control rate is greater than or equal to 20% and less than 40%)
- Post-emergence herbicidal activity, E. crusgalli (grade) (Echinochloa crusgalli; dosage 10 g/mu): 3 (Grade 3: the growth control rate is greater than or equal to 40% and less than 60%)
- Post-emergence herbicidal activity, Trifoliumre pensL. (grade) (Trifoliumre pensL.; dosage 2.5 g/mu): 4 (Grade 4: the growth control rate is greater than or equal to 60% and less than 85%)
- Post-emergence herbicidal activity, Trifoliumre pensL. (grade) (Trifoliumre pensL.; dosage 5 g/mu): 5 (Grade 5: the growth control rate is greater than or equal to 85%)
- Post-emergence herbicidal activity, Trifoliumre pensL. (grade) (Trifoliumre pensL.; dosage 10 g/mu): 5 (Grade 5: the growth control rate is greater than or equal to 85%)

Structure (SMILES): O=C1C2=C(CCCC2)C(=O)N1c1cc(OCc2nc(-c3c(F)cccc3F)no2)c(Cl)cc1F [Compound A24]
- Post-emergence herbicidal activity, P. oleracea (grade) (Portulaca oleracea; dosage 2.5 g/mu): 4 (Grade 4: the growth control rate is greater than or equal to 60% and less than 85%)
- Post-emergence herbicidal activity, P. oleracea (grade) (Portulaca oleracea; dosage 5 g/mu): 5 (Grade 5: the growth control rate is greater than or equal to 85%)
- Post-emergence herbicidal activity, P. oleracea (grade) (Portulaca oleracea; dosage 10 g/mu): 5 (Grade 5: the growth control rate is greater than or equal to 85%)
- Post-emergence herbicidal activity, A. retroflexus (grade) (Amaranthus retroflexus; dosage 2.5 g/mu): 5 (Grade 5: the growth control rate is greater than or equal to 85%)
- Post-emergence herbicidal activity, A. retroflexus (grade) (Amaranthus retroflexus; dosage 5 g/mu): 5 (Grade 5: the growth control rate is greater than or equal to 85%)
- Post-emergence herbicidal activity, A. retroflexus (grade) (Amaranthus retroflexus; dosage 10 g/mu): 5 (Grade 5: the growth control rate is greater than or equal to 85%)
- Post-emergence herbicidal activity, S. viridis (grade) (Setaria viridis; dosage 2.5 g/mu): 2 (Grade 2: the growth control rate is greater than or equal to 20% and less than 40%)
- Post-emergence herbicidal activity, S. viridis (grade) (Setaria viridis; dosage 5 g/mu): 3 (Grade 3: the growth control rate is greater than or equal to 40% and less than 60%)
- Post-emergence herbicidal activity, S. viridis (grade) (Setaria viridis; dosage 10 g/mu): 4 (Grade 4: the growth control rate is greater than or equal to 60% and less than 85%)
- Post-emergence herbicidal activity, A. theophrasti (grade) (Abutilon theophrasti; dosage 2.5 g/mu): 5 (Grade 5: the growth control rate is greater than or equal to 85%)
- Post-emergence herbicidal activity, A. theophrasti (grade) (Abutilon theophrasti; dosage 5 g/mu): 5 (Grade 5: the growth control rate is greater than or equal to 85%)
- Post-emergence herbicidal activity, A. theophrasti (grade) (Abutilon theophrasti; dosage 10 g/mu): 5 (Grade 5: the growth control rate is greater than or equal to 85%)
- Post-emergence herbicidal activity, E. crusgalli (grade) (Echinochloa crusgalli; dosage 2.5 g/mu): 1 (Grade 1: the growth control rate is greater than or equal to 5% and less than 20%)
- Post-emergence herbicidal activity, E. crusgalli (grade) (Echinochloa crusgalli; dosage 5 g/mu): 2 (Grade 2: the growth control rate is greater than or equal to 20% and less than 40%)
- Post-emergence herbicidal activity, E. crusgalli (grade) (Echinochloa crusgalli; dosage 10 g/mu): 3 (Grade 3: the growth control rate is greater than or equal to 40% and less than 60%)
- Post-emergence herbicidal activity, Trifoliumre pensL. (grade) (Trifoliumre pensL.; dosage 2.5 g/mu): 4 (Grade 4: the growth control rate is greater than or equal to 60% and less than 85%)
- Post-emergence herbicidal activity, Trifoliumre pensL. (grade) (Trifoliumre pensL.; dosage 5 g/mu): 5 (Grade 5: the growth control rate is greater than or equal to 85%)
- Post-emergence herbicidal activity, Trifoliumre pensL. (grade) (Trifoliumre pensL.; dosage 10 g/mu): 5 (Grade 5: the growth control rate is greater than or equal to 85%)
